From patent US20240409517A1, “ORGANIC COMPOUNDS” (GIVAUDAN SA, priority 2021, published 2024)

Experiments:
Type in all cases: in vivo
sensory panel [1] = assay: Effect on corn curls with cheese flavor, sensory panel; settings: 70 ppm compound
Excerpt: Corn curls with cheese flavor with and without addition of the compound of example 1 have been compared by a sensory panel.

sensory panel [2] = assay: Salt enhancement in 0.3% NaCl solution at different concentrations, sensory panel
sensory panel [3] = assay: Taste in water by a sensory panel
sensory panel [4] = assay: Effect on model broth base, sensory panel; settings: model broth base with 0.3% NaCl, 50 ppm compound
Excerpt: A model broth base, comprising 0.3% of NaCl was compared with a sample further comprising 50 ppm of the compound of example 1.
(§1) The solutions were tasted by a sensory panel.

sensory panel [5] = assay: Effect on cheese sauce, sensory panel; settings: 50 ppm compound
Excerpt: The effect of the compound of example 1 on cheese sauce was explored. Therefore, a cheese sauce has been compared by a sensory panel with a sample of the sauce further comprising 50 ppm of the compound of example 1.

sensory panel [6] = assay: Effect on potato chips, sensory panel; settings: potato chips with 1.5% salt, 70 ppm compound
Excerpt: Potato chips with 1.5% salt have been tasted by a sensory panel with and without additional compound of example 1.

sensory panel [7] = assay: Effect on soy based vegan burger, sensory panel; settings: 70 ppm compound
Excerpt: Soy based vegan burgers with and without the compound of example 1 have been tasted by a sensory panel.

sensory panel [8] = assay: Effect on vegan cheese, sensory panel; settings: vegan cheese with 0.2% cheese parmesan natural flavor, 70 ppm compound
Excerpt: Samples of vegan cheese comprising 0.2% cheese parmesan natural flavor have been compared with and without the compound of example 1 by a sensory panel.

sensory panel [9] = assay: Salt enhancement in 0.5% NaCl aqueous solution, sensory panel; settings: 0.5% NaCl aq. solution with 50 ppm compound, compared with 0.5% NaCl alone
Excerpt: The solutions were tasted by a sensory panel. Solution A was describes as “salty”.
Aqueous solutions comprising 0.5% NaCl and 50 ppm of the compounds of example 2-21, respectively, have been prepared and tasted by a sensory panel in comparison with an aqueous solution comprising 0.5% NaCl.
Aqueous solutions comprising 0.5% NaCl and 50 ppm of the compounds of example 38-58, respectively, have been prepared and tasted by a sensory panel in comparison with an aqueous solution comprising 0.5% NaCl.

sensory panel [10] = assay: Bitter masking in 0.3% KCl solution, sensory panel; settings: 0.3% KCl with 50 ppm compound, compared with 0.3% KCl alone
Excerpt: as §1

sensory panel [11] = assay: Effect on processed meat, sensory panel; settings: 70 ppm compound
Excerpt: Samples of processed meat with full salt flavor and sodium reduced flavor have been tasted by a sensory panel with and without the compound of example 1.
Sample 1 was comprising a full salt flavor base.
Sample 2 was comprising a full salt flavor base and 70 ppm of the compound of example 1.
Sample 3 was comprising a salt reduced (33.3%) flavor base and a saltiness flavor modulator.comprising KCl.
Sample 4 was comprising a salt reduced (33.3%) flavor base, a saltiness flavor modulator.comprising KCl, and 70 ppm of the compound of example 1.

sensory panel [12] = assay: Effect on mayonnaise, sensory panel; settings: commercially available mayonnaise, 70 ppm compound
Excerpt: Samples of commercially available mayonnaise with and without addition of the compound of example 1 have been compared by a sensory panel.

sensory panel [13] = assay: Umami enhancement in savoury model solution (NaCl, MSG, Ribotides), sensory panel; settings: 0.5% NaCl, 0.03% MSG, 0.007% Ribotides with 50 ppm compound, compared with solution A without compound
Excerpt: The solutions were tasted by a sensory panel. Solution A is a model solution for savoury taste, containing MSG (monosodium glutamate) and Ribotides (IMP/GMP, 50/50 mixture) as savoury taste enhancer.
Two aqueous solutions have been prepared: • A) 0.5% NaCl, 0.03% MSG, 0.007% Ribotides, and • B) 0.5% NaCl, 0.03% MSG, 0.007% Ribotides and 50 ppm of the compound of example 38-58, respectively.

## O=C(/C=C/c1c[nH]cn1)NCCc1c[nH]cn1 [Example 1, (2E)-3-(1H-imidazol-4-yl)-N-[2-(1H-imidazol-4-yl)ethyl]prop-2-enamide]
Sensory panel [1]
  taste versus corn curls without compound: more salty, lingering and mineralic
Sensory panel [2]
  upper level at which the salt enhancing effect was perceived: up to 200 ppm
Sensory panel [2]; 1 ppm or higher
  salt enhancement in 0.3% NaCl solution: a salt enhancing effect, providing a more lingering, mineralic and fuller salt taste
Sensory panel [2]; below 1 ppm
  salt enhancement in 0.3% NaCl solution: No salt enhancement was perceived
Sensory panel [3]; 50 ppm or higher, noticeable up to 1000 ppm
  taste effect in water: slight effect of mouth drying
Sensory panel [3]; up to 40 ppm
  taste effect in water: no effect was noticed
Sensory panel [3]; up to 1000 ppm
  taste as such in water: no taste as such was perceived, in particular no saltiness
Sensory panel [4]
  acidity of the broth base: The sharp acidity of the broth base was reduced
  taste versus model broth base: more mineral and salty
Sensory panel [5]
  taste versus plain cheese sauce: more mineral and salty, with a mineralic linger, and having a natural aged cheese character
Sensory panel [6]
  taste versus potato chips without compound: a higher salty impact and a lingering effect
Sensory panel [7]
  taste versus vegan burger without compound: more salty, having a mineral linger, contributing well to the perception of a burger
Sensory panel [8]
  taste versus vegan cheese without compound: more salty and mineral, and the overall taste is lifted
Sensory panel [9]
  salty taste versus 0.5% NaCl solution: more salty with a mineralic note
Sensory panel [10]
  bitter and salty taste versus 0.3% KCl solution: less bitter and more salty and mineral
Sensory panel [11]; full salt flavor base
  taste of processed meat, sample 2 versus sample 1: more salty and mineral
Sensory panel [11]; salt reduced (33.3%) flavor base with saltiness flavor modulator comprising KCl
  taste of processed meat, sample 4 versus sample 1: improved salt-peak, increased salinity, prolonged saltiness, significantly reduced bitterness and astringency, and increased salivation
Sensory panel [12]
  taste versus pure mayonnaise: instant tingly salty with a mineral linger and enhanced acidity
Sensory panel [13]
  saltiness and umami versus savoury model solution: strong boost of saltiness and umami
